Results taken from patent publication US20070148283A1, “Compositions providing a sensation substantially similar to that provided by menthol” (Cadbury Adams USA LLC, priority 2005, published 2007).

test: Amount in a composition achieving the characteristic nasal action of menthol; type: in vivo; settings: amount present in a composition; equivalent amounts relative to menthol
From the text: For purposes of achieving the characteristic “nasal action” of menthol, an equivalent amount of another compound sufficient to impart the characteristic “nasal action” of menthol is about 0.5 ppm, preferably about 1 ppm or even 2 or 3 ppm of methone, about 0.5 ppm, preferably about 1 ppm or even 2 or 3 ppm of isomethone, about 0.1 ppm, preferably about 0.2 ppm or even 0.3 or 0.5 ppm of eucalyptol, and about 10 ppm, preferably about 20 ppm or even 30 or 50 ppm of camphor. Using these relative conversions, one of ordinary skill in the art may readily substitute one or more compounds to achieve the relative “nasal action” of menthol.

Compound | amount sufficient to impart the characteristic nasal action of menthol
CC(C)[C@@H]1CC[C@@H](C)CC1=O [methone, menthone] | about 0.5 ppm
CC12CCC(CC1)C(C)(C)O2 [eucalyptol] | about 0.1 ppm
CC(C)[C@@H]1CC[C@H](C)CC1=O [isomethone, isomenthone] | about 0.5 ppm
CC1CCC(C(C)C)C(O)C1 (stereo not drawn) [menthol] | ≥ 3 ppm
CC12CCC(CC1=O)C2(C)C (stereo not drawn) [camphor] | about 10 ppm

test: Amount in a composition achieving the characteristic cooling effect of menthol; type: in vivo; settings: amount present in a composition; equivalent amounts relative to menthol
From the text: For purposes of achieving the characteristic “cooling effect” of menthol, an equivalent amount of another compound sufficient to impart the characteristic “cooling effect” of menthol is about 50 ppm, preferably about 100 ppm or even 200 or 300 ppm of menthyl lactate, about 20 ppm, preferably about 40 ppm or even 50 or 75 ppm of monomenthyl succinate, and about 0.01 ppm, preferably about 0. 1 ppm or even 0.3 or 0.5 ppm of isopulegol. Using these relative conversions, one of ordinary skill in the art may readily substitute one or more compounds to achieve the relative “cooling effect” of menthol.

Compound | amount sufficient to impart the characteristic cooling effect of menthol
C=C(C)[C@@H]1CC[C@@H](C)C[C@H]1O [isopulegol] | about 0.01 ppm
CC1CCC(C(C)C)C(OC(=O)C(C)O)C1 (stereo not drawn) [menthyl lactate] | about 50 ppm
CC(C)[C@@H]1CC[C@@H](C)C[C@H]1OC(=O)CCC(=O)O [monomenthyl succinate] | about 20 ppm
CC1CCC(C(C)C)C(O)C1 (stereo not drawn) [menthol] | ≥ 25 ppm
